Measurements published in patent US20170312300A1, “Methods for Treating Cancer” (Fundacion Centro National de Investigaciones Oncolgicas …, priority 2014, published 2017).

What was measured:
[1] = biological target: T1, kynurenine 3-monooxygenase (KMO) (Mus musculus, UniProt Q91WN4); test: Ro-61-8048 treatment of C57BL/6 mice previously fed DDC diet (liver NAD+ and DNA damage); type: in vivo; conditions: 25 mg/Kg intraperitoneally for 3 consecutive days after 4 days DDC diet, vs DMSO
T1 construct: supplying C57BL/6 mice for 4 days with a DDC-supplemented diet; from tissue; host or cells: liver of living C57BL/6 mice (in vivo dosing)
T1 sequence (Q91WN4 whole entry): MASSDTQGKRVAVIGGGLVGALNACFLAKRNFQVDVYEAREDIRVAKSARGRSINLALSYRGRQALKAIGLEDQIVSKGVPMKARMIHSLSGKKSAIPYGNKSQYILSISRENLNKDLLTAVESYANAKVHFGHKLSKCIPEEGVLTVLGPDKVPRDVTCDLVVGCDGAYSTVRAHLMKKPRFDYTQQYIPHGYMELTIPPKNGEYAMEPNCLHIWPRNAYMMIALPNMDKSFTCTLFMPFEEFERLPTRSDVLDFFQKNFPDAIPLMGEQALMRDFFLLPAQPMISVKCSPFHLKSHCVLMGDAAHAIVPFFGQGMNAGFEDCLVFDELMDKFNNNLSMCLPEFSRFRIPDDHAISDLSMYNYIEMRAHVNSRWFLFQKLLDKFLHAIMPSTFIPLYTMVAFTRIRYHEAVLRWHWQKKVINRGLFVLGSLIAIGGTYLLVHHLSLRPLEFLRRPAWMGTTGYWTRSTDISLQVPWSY
Procedure: Freshly harvested murine livers were fixed immediately in 10% buffered formalin solution overnight and embedded in paraffin. Sections of 3 μm were deparafinized, rehydrated and antigen retrieved by using 1M sodium citrate buffer (pH 6.5). After blocking endogenous peroxidase using 3% H2O2 (in methanol) for 5 min, sections were then blocked with 1:200 goat serum 5% BSA/PBST for 1 h at RT. Furthermore, sections were incubated with primary antibodies overnight at 4° C., after which Vectastain ABC kit (Vector Laboratories, Inc) was used, following manufacturer's instructions. Sections were then incubated with 33-diaminobenzidinetetracloride (DBA) and counterstained with hematoxylin. In the case of immunofluorescence, sections were incubated with PE-conjugated secondary antibodies (1:500) for 1 h at RT, followed by DAPI staining. Quantification was performed either by counting the number of positive cells in a minimum of six 10× or 20× microscopic fields, or the percentage of positive area using Color Deconvolution plug-in in Image J.
NAD+ levels were determined using a commercial kit (Enzychrom, BioAssays Systems, CA), and as previously described (Canto et al., 2012, Cell Metab 15, 838-847). NAD+/NADH assay kit is based on a […] cycling reaction, in which the formed NADH reduces a formazan (MTT) reagent. […]

[2] = tested on: model of hepatic carcinogenesis; conditions: cited from earlier work
[3] = tested on: hepatocarcinogenesis; conditions: cited from earlier work
[4] = tested on: advanced HCC; conditions: patients with advanced HCC; cited from earlier work

COc1ccc(S(=O)(=O)Nc2nc(-c3cccc([N+](=O)[O-])c3)cs2)cc1OC [Ro-61-8048]
DNA damage foci (γH2AX) in livers [1]: significantly elevated | NAD+ concentrations in livers [1]: reduced

NC(=O)c1cccnc1 [nicotinamide]
number of foci, their diameter or proportion of liver occupied by loci [2]: no effect | hepatocarcinogenesis ([3]; both in vitro and in vivo): effectively inhibits | formation of loci and adenomas ([3]; in vivo): lower formation

CNC(=O)c1cc(Oc2ccc(NC(=O)Nc3ccc(Cl)c(C(F)(F)F)c3)cc2)ccn1 [sorafenib]
prolongation of survival compared to placebo [4]: around 2 months
